In patent US9840515B2, “Protein kinase D inhibitors” (University of Pittsburgh—Of the Commonwealth System of …, priority 2010, dated 2017):
Values joined by “and” are separate entries in the source; they are usually repeats but may differ in a detail not shown here. Equal values may be shown once. “Also recorded” adds a separate entry of the source. Read-outs that look alike come from different tables or passages of the source.

What was measured:
[1] = target: T1, purified recombinant human PKD1 (Homo sapiens, UniProt Q15139); experiment: radiometric PKD kinase activity assay; format: biochemical
T1 sequence (Q15139 1-912): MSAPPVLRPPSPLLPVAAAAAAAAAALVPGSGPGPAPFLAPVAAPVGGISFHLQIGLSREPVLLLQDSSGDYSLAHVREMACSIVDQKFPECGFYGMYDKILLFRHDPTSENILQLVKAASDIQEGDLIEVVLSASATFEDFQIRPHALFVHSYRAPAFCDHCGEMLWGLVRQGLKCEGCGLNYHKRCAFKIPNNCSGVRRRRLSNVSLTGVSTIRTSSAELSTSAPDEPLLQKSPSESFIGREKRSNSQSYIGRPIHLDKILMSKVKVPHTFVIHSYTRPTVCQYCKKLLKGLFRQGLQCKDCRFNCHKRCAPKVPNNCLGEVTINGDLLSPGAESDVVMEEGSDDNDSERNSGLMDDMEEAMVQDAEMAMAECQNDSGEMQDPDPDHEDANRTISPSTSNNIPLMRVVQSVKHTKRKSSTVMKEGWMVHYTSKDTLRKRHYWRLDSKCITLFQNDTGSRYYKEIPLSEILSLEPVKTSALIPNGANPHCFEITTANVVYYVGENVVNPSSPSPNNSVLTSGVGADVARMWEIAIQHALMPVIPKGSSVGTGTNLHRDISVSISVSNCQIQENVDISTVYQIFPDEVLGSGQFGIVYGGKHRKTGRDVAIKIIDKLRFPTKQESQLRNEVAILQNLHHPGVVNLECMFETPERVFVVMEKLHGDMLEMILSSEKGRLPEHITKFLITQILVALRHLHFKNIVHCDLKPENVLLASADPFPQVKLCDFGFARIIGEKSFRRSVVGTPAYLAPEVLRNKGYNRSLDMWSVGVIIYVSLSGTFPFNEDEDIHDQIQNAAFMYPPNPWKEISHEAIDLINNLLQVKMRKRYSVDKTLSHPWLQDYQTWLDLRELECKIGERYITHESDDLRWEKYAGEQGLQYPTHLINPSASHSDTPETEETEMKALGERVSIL
Experimental: The radiometric PKD kinase assay was carried out by co-incubating 0.5 μCi γ-32P-ATP (PerkinElmer, Boston, Mass.), 20 μM ATP, 50 ng purified recombinant human PKD (PKD1, PKD2, PKD3) proteins, and 2.5 μg Syntide-2 (Sigma) in 50 μl kinase buffer that contains 50 mM Tris-HCl, pH 7.5, 4 mM MgCl2, 10 mM β-mercaptoethanol. The reaction was carried out under sub-saturation conditions, such that the initial rate was within linear kinetic range. The reaction mixture was incubated at 30° C. for 10 min, followed by spotting 25 μl of the mix onto a Whatman P81 filter paper (Whatman Inc, Clifton, N.J.). The filter papers were then washed three times in 0.5% phosphoric acid, air-dried, and counted using a Beckman LS6500 multi-purpose scintillation counter (Beckman, Fullerton, Calif.).

[2] = test system: AKT; experiment: IMAP-based AKT fluorescent polarization counter-screen; format: biochemical; settings: read-out: IC50 AKT (Ave ± SD)
Experimental: (§1) Automated, highthroughput screening (HTS) formatted IMAP-based AKT fluorescent polarization assay (AKT FP), and PLK1 and CAK TR-FRET assays were used to assess the specificity of the PKD analogs as previously described. See Sharlow, E. R., et. al., J. Biol Chem, 283: 33516-33526, (2008). For the PLK2 IMAP TR-FRET assay, PLK2 kinase reactions were generated by the stepwise addition of a 3-fold excess concentration of substrate/ATP (1650 nM/105 μM), analog, and PLK2 enzyme (1.02 milliunits/μL). PLK2 kinase reactions were incubated for 150 min at room temperature and stopped with the addition of an IMAP binding reagent supplemented with terbium. Assay plates were then incubated overnight. Analysis was performed as described in the literature. Id.
(§2) The PLK2 substrate (FAM-[…]) was obtained from Molecular Devices (Sunnyvale, Calif.). H-89 was used as a positive inhibitory control compound in the assays. A 10 point concentration range for each compound to be tested was used to determine IC50 values. The maximum concentration of a particular compound used in this assay was either 50 μM, or 100 μM, depending on the solubility of the individual compounds. Each experiment was assayed in triplicate and data is represented as average IC50±SD. The IC50 determinations for each analog evaluated in the IMAP (PLK2, PLK1, CAK, and AKT) formats were conducted within the linear range of the captured signal readout.

[3] = target: PLK1 (Homo sapiens, UniProt P53350); experiment: IMAP PLK1 TR-FRET counter-screen; format: biochemical; settings: read-out: IC50 PLK1 (Ave ± SD)
Experimental: as §1, §2

[4] = target: PLK2 (Homo sapiens, UniProt Q9NYY3); experiment: PLK2 IMAP TR-FRET counter-screen; format: biochemical; settings: read-out: IC50 PLK2 (Ave ± SD)
Experimental: as §1, §2

[5] = target: CAK (CDK7) (Homo sapiens, UniProt P50613); experiment: IMAP CAK TR-FRET counter-screen; format: biochemical; settings: read-out: IC50 CAK(CDK7) (Ave ± SD)
Experimental: as §1, §2

[6] = target: T2, PKD1 (Homo sapiens, UniProt Q15139); experiment: Cellular inhibition of PMA-induced PKD1 S916 autophosphorylation in LNCaP cells (Western blot densitometry); format: cell-based; design: endogenous in cells; host or cells: LNCaP prostate cancer cells; settings: for IC50: PKD1 autophosphorylation at S916 in LNCaP cells
T2 sequence (Q15139 1-912): T1 sequence (Q15139 1-912)
Experimental: The compound to be tested was dissolved in DMSO at an initial concentration of 10 mM. LNCaP prostate cancer cells were pre-treated with DMSO or increasing concentrations of the compound for 45 min, followed by treatment with or without 100 nM phorbol 12-myristate 13-acetate (PMA), an activator of PKD, for 20 min. The cells were harvested for Western blot analysis.
Briefly, cells were lysed in lysis buffer containing 200 mM Tris-HCl, pH 7.4, 100 μM 4-(2-aminoethyl)benzenesulfonyl fluoride, 1 mM EGTA, and 1% Triton X-100. Protein concentration was determined using the BCA Protein Concentration Assay reagent kit (Pierce). Equal amounts of protein were subjected to SDS-PAGE followed by electrotransfer to nitrocellulose membranes. Membranes were blocked with 5% nonfat milk in Tris-buffered saline and then probed with primary antibodies for p-S916-PKD1 (Millipore), p-S744/748-PKD1 (Cell Signaling Technology), or GAPDH (Enzo), followed by anti-mouse or anti-rabbit secondary antibodies conjugated to horseradish peroxidase (Bio-Rad). The bands were detected by incubating with the enhanced chemiluminescence (ECL) Western blotting detection reagent (Amersham Biosciences) and exposing to X-ray films.

[7] = stability in protic solvents; format: physicochemical
[8] = target: T2, PKD1; experiment: IMAP-FP PKD1 assay; format: biochemical
Text: See Sharlow, E. R., et. al., J Biol Chem, 283: 33516-33526, (2008). The assay established the concentration of inhibitor that is required to reduce PKD1 activity by 50% (IC50), as shown in Table 2 above.

[9] = radiometric kinase activity assay, in vitro, read-out: IC50 PKD1
[10] = read-out: IC50 radiometric PKD1

Sequence of PLK2 (Q9NYY3 whole entry, species assumed): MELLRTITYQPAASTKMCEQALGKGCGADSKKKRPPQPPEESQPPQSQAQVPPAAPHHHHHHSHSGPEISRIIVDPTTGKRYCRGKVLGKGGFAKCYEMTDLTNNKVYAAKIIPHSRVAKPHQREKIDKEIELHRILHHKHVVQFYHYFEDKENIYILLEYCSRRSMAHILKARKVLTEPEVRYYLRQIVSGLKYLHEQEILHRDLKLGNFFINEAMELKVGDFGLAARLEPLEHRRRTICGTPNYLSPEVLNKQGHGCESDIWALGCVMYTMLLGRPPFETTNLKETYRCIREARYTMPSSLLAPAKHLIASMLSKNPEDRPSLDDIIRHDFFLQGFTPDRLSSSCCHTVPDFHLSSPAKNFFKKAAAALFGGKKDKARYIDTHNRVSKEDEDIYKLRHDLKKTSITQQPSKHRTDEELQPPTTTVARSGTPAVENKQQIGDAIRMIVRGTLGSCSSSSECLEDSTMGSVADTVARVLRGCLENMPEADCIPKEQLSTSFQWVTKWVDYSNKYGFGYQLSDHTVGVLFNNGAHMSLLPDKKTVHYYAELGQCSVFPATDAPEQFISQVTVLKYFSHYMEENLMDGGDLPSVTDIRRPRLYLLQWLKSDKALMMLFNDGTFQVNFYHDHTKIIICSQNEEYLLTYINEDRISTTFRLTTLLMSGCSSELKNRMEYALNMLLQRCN
Sequence of PLK1 (P53350 whole entry, species assumed): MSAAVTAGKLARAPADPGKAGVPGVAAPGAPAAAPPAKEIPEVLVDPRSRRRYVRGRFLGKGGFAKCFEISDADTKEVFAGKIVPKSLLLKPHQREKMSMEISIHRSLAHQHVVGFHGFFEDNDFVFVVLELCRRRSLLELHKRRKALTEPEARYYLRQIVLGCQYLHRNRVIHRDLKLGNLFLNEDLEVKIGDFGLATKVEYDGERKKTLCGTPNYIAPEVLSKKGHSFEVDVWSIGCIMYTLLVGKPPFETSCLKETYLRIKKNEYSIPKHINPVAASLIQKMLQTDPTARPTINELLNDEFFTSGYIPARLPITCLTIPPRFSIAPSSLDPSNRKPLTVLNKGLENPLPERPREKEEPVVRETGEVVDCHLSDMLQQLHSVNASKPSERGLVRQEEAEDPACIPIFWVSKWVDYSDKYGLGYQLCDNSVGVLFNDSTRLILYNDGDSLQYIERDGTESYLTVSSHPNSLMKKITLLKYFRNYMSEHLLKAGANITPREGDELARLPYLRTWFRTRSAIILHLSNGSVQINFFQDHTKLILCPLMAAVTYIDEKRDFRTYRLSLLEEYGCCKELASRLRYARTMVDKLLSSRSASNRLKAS
Sequence of CAK (CDK7) (P50613 whole entry, species assumed): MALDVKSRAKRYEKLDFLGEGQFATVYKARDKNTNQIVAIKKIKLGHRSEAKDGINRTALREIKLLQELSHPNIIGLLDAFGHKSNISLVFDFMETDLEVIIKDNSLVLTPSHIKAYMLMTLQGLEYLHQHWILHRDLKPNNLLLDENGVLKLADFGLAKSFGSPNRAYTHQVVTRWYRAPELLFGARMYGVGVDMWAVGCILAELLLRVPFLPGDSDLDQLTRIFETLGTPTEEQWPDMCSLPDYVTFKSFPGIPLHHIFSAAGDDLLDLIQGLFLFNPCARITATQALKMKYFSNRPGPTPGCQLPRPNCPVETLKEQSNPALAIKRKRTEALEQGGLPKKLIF
Sequence of CAK (CDK7) (P51946 whole entry partner, species assumed): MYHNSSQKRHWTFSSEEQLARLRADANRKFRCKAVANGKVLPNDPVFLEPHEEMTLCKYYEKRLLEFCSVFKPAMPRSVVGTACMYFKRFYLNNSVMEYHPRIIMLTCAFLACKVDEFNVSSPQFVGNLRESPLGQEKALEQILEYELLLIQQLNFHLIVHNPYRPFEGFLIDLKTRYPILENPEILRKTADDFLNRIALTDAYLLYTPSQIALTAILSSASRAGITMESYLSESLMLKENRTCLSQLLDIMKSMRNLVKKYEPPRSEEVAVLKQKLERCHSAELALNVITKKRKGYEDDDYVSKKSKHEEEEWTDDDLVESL
Sequence of CAK (CDK7) (P51948 whole entry partner, species assumed): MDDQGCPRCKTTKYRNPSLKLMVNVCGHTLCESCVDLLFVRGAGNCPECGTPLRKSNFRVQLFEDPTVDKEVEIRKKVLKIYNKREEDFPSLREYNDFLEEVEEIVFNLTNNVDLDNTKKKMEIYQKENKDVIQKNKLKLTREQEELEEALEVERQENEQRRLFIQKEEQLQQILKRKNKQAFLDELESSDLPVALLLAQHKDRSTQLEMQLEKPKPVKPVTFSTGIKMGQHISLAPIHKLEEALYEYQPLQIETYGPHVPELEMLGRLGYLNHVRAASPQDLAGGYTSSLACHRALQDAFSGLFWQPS

Row | IC50 [1, 10] | melting point | PKD inhibition, in words [1] | stability in protic solvents [7] | IC50 [8] | Structure (SMILES) | fold more potent than CID755673 (in vitro PKD1 IC50) [1] | IC50 [1, 9] | IC50 [2] | IC50 [3] | IC50 [4] | IC50 [5] | cellular IC50 fold lower than CID755673 [6] | IC50 [6] | cellular PKD1 inhibition, in words ([6]; PMA-induced PKD1 autophosphorylation at S916, LNCaP)
1 |  |  |  |  |  | O=C1NCCSc2c1sc1ccc(O)cc21 [kb-NB142-70, 3,4-Dihydro-9-hydroxy-[1]benzothieno[2,3-f]-1,4-thiazepin-5(2H)-one] | ~7 fold | 0.0283 ± 0.0023 µM | > 100 µM | 17 ± 7.7 µM | 39 ± 3.4 µM | 12 ± 0.6 µM | 5 fold | 2.2 µM | 
2 | 0.08 ± 0.01 µM | 193 °C (dec.) |  |  |  | [N-]=[N+]=Nc1ccc2sc3c(c2c1)SCCNC3=O [mcf292-08, 3,4-Dihydro-9-azido-[1]benzothieno[2,3-f]-1,4-thiazepin-5(2H)-one] |  | 0.0749 µM | > 50 µM | > 50 µM | > 50 µM | > 50 µM |  | 2.2 µM and 2.17 µM | 
3 |  |  |  |  |  | O=C1NCCCSc2c1sc1ccc(O)cc21 [kb-NB165-92, 2,3,4,5-Tetrahydro-10-hydroxybenzo[b]thieno[2,3-f]-1,5-thiazocin-6-one] |  | 0.111 ± 0.006 µM | > 50 µM | 13 ± 7.7 µM | 28 ± 3.1 µM | 11 ± 3.3 µM |  | 2.6 µM and 2.56 µM | 
4 |  |  |  |  |  | COc1ccc2sc3c(c2c1)SCCNC3=O [kb-NB165-09, 3,4-Dihydro-9-methoxy-[1]benzothieno[2,3-f]-1,4-thiazepin-5(2H)-one] |  | 0.0825 ± 0.0046 µM | > 50 µM | > 50 µM | > 50 µM | 17.1 ± 13.6 µM |  | 3.1 ± 0.5 µM | 
5 | 25.3 µM |  | only weak inhibitory effect | spontaneously degrade in protic solvents |  | O=C1NCCSc2c1sc1cnc(O)nc21 [kmg-NB4-69A, 2-Hydroxy-7H,8H,9H-1,4-thiazepino[7′,6′-5,4]thiopheno[3,2-d]pyrimidin-6-one] |  |  |  |  |  |  |  |  | 
6 | 0.12 ± 0.03 µM | 308 °C (dec.) | potent nanomolar inhibitor |  |  | COc1ncc2sc3c(c2n1)SCCNC3=O [kmg-NB4-23, 2-Methoxy-7H,8H,9H-1,4-thiazepino[7′,6′-5,4]thiopheno[3,2-d]pyrimidin-6-one] |  | 0.124 µM | > 100 µM | > 100 µM | > 100 µM | > 100 µM |  | 6.8 ± 1.3 µM | 
7 |  |  |  |  | 2.14 ± 0.12 µM | O=C1NCCCc2c1[nH]c1ccc(O)cc21 [kb-NB123-57, 3,4,5,10-Tetrahydro-7-hydroxy-azepino[3,4-b]indol-1(2H)-one] |  | 0.13 µM | > 100 µM | > 100 µM | > 100 µM | 39.2 ± 10.2 µM |  | > 50 µM | no significant cellular activity; also recorded: weaker inhibition

Row | Structure (SMILES) | IC50 [1, 10] | melting point | PKD inhibition, in words [1] | stability in protic solvents [7] | IC50 [8] | fold more potent than CID755673 (in vitro PKD1 IC50) [1] | IC50 [1, 9] | IC50 [2] | IC50 [3] | IC50 [4] | IC50 [5] | cellular IC50 fold lower than CID755673 [6] | IC50 [6] | cellular PKD1 inhibition, in words ([6]; PMA-induced PKD1 autophosphorylation at S916, LNCaP)
8 | COc1ccc2sc3c(c2c1)SCCCNC3=O [kb-NB184-02, 2,3,4,5-Tetrahydro-10-methoxybenzo[b]thieno[2,3-f]-1,5-thiazocin-6-one] | 0.19 ± 0.03 µM |  |  |  |  |  | 0.193 ± 0.027 µM | > 100 µM | > 50 µM | > 50 µM | 9 ± 4.1 µM |  | 18.6 ± 2 µM | 
